Results reported in patent publication US11820773B2, “Tricyclic compounds” (ALIGOS THERAPEUTICS, INC., priority 2020, dated 2023).

tested on: HBV; test: HBV-DNA antiviral assay using HepG2.117 cells (intracellular HBV DNA by qPCR); type: cell-based, genotype D HBV; conditions: HBV DNA inhibition, 3 days incubation, 2% DMSO
Procedure: The following assay procedure describes the HBV antiviral assay, using HepG2.117 cells, which carry a stably integrated genotype D HBV genome under the control of a Tet-off promoter, and intracellular HBV DNA quantification as endpoint. Cell viability is assessed in parallel by measuring the intracellular ATP content using CellTiter-Glo 2.0 (Promega).
On day 0, HepG2.117 cells (which are maintained in routine cell culture with doxycycline present in the medium at a final concentration of 1 μg/mL) were seeded in 96-well plates (white with clear bottom) at a density of 2.0×10^4 cells/well (0.1 mL/well) in medium without doxycycline to induce pgRNA transcription and subsequent formation of HBV particles. The cells were incubated at 37° C. and 5% CO2.
On day 1, medium was removed from each well, the test articles were diluted in culture medium without doxcycyline and 100 μL was added to cell culture wells (9 concentrations, 4-fold dilution). For each plate, 6 untreated (merely DMSO) wells were included. The final concentration of DMSO in the culture medium was 2%. Each plate was prepared in duplicate (one for HBV DNA extraction, one for CellTiter-Glo 2.0 measurement). The cells were incubated at 37° C. and 5% CO2 for 3 days.
On day 4, cell viability was assessed using CellTiter-Glo 2.0 and cell lysates were prepared for HBV DNA extraction and subsequent quantification by qPCR.
HBV DNA Quantification by qPCR
Medium was removed from each well and 100 μL of 0.33% NP-40 in H2O was added to each well. Plates were sealed, incubated at 4° C. for 5 mins, vortexed extensively and centrifuged briefly. Next, 35 μL of lysate was added to 65 μL QuickExtract DNA Extraction Solution (Epicentre) in a PCR plate for each well. PCR plate was incubated at 65° C. for 6 mins, 98° C. for 2 mins and finally cooled to 4° C. HBV DNA was then quantified by qPCR with HBV-specific primers and probes as specified in Table 1 using the Bio-Rad SSOAdvanced Universal Probes Supermix on a CFX96 machine (Bio-Rad). The PCR cycle program consisted of 95° C. for 3 mins, followed by 40 cycles at 95° C. for 10 sec and 60° C. for 30 sec.
A DNA standard was prepared by dilution of an IDT gBlock corresponding to the amplicon with concentrations ranging from 10^2 to 10^8 copies/input (i.e. per 4 μL) and used to generate a standard curve by plotting Cq values vs. HBV DNA standard concentration. The quantity of HBV DNA in each sample was determined by interpolating from the standard curve.
Cell viability was calculated as follows: % Cell viability=(luminescence value of test sample)/(average luminescence value of 2% DMSO control)×100%. HBV DNA inhibition was calculated as follows: 100−(HBV DNA copy number of test sample)/(average HBV DNA copy number of 2% DMSO control)×100%. No normalization to entecavir was required due to the excellent dynamic window of this assay. The CC50, EC50 and EC90 values were determined by dose-response curves fitted by GraphPad Prism using “log (agonist) vs. response—Variable slope”.

Question: For `Cn1nnc(-c2ccc(-n3c(=O)c4c(n5ncc(Cc6ccccc6)c35)CN(C(=O)c3ccc(Br)c(Cl)c3)CC4)cc2)n1` [Compound 10, 5-benzyl-12-(4-bromo-3-chloro-benzoyl)-7-[4-(2-methyltetrazol-5-yl)phenyl]-2,3,7,12-tetrazatricyclo[7.4.0.0^2,6]trideca-1(9),3,5-trien-8-one], which EC50 is on record?
Answer: The EC50 was < 50 nM.

Question: `CC(C)Cc1cnn2c3c(c(=O)n(-c4ccc(-c5nncn5C)cc4)c12)C[C@@H](C)N(C(=O)c1ccc(Br)c(Cl)c1)C3` [Compound 60a, (11R)-12-(4-bromo-3-chlorobenzoyl)-11-methyl-7-[4-(4-methyl-1,2,4-triazol-3-yl)phenyl]-5-(2-methylpropyl)-2,3,7,12-tetraazatricyclo[7.4.0.0^{2,6}]trideca-1(9),3,5-trien-8-one] was tested. Which EC50 did it give?
Answer: The EC50 was < 50 nM.

Question: How did the EC50 turn out when `CNC(=O)c1ccc(-n2c(=O)c3c(n4ncc(CC5CC5)c24)CN(C(=O)c2ccc(Br)c(C(F)(F)F)c2)C(C)C3)cc1` (racemic) [Compound 21b, N-methyl-4-[rac-(11S)-12-[4-bromo-3-(trifluoromethyl)benzoyl]-5-(cyclopropylmethyl)-11-methyl-8-oxo-2,3,7,12-tetrazatricyclo[7.4.0.0^2,6]trideca-1(9),3,5-trien-7-yl]benzamide] was run?
Answer: Its EC50 is 50 to 500 nM.

same assay, conditions: Hepatitis B virus, 72 h, HBV DNA inhibition, 3 days incubation, 2% DMSO

Question: `C[C@@H]1Cc2c(n3ncc(Cc4ccccc4)c3n(-c3ccc(-c4nn(C)c(=O)[nH]4)cc3)c2=O)CN1C(=O)c1ccc(Br)c(C(F)(F)F)c1` (stereo in doubt) [Compound 82a, rac-(11R)-5-benzyl-12-[4-bromo-3-(trifluoromethyl)benzoyl]-11-methyl-7-[4-(1-methyl-5-oxo-4H-1,2,4-triazol-3-yl)phenyl]-2,3,7,12-tetrazatricyclo[7.4.0.0^2,6]trideca-1(9),3,5-trien-8-one] was tested. Which EC50 did it give?
Answer: Its EC50 is < 50 nM.

Question: How did the EC50 turn out when `Cc1nnc(-c2ccc(-n3c(=O)c4c(n5ncc(CC(C)C)c35)CN(C(=O)c3ccc(Cl)c(C(F)(F)F)c3)[C@H](C)C4)cc2)[nH]1` (stereo in doubt) [Compound 65a, rac-(11R)-12-[4-chloro-3-(trifluoromethyl)benzoyl]-5-isobutyl-11-methyl-7-[4-(5-methyl-4H-1,2,4-triazol-3-yl)phenyl]-2,3,7,12-tetrazatricyclo[7.4.0.0^2,6]trideca-1(9),3,5-trien-8-one] was run?
Answer: Its EC50 is < 50 nM.

Question: How did the EC50 turn out when `CNc1n[nH]c2cc(-n3c(=O)c4c(n5ncc(CC(C)C)c35)CN(C(=O)c3ccc(Br)c(C(F)(F)F)c3)[C@H](C)C4)ccc12` (stereo in doubt) [Compound 61a, rac-(11R)-12-[4-bromo-3-(trifluoromethyl)benzoyl]-5-isobutyl-11-methyl-7-[3-(methylamino)-1H-indazol-6-yl]-2,3,7,12-tetrazatricyclo[7.4.0.0^2,6]trideca-1(9),3,5-trien-8-one] was run?
Answer: Its EC50 is < 50 nM.

Question: With `CC(C)Cc1cnn2c3c(c(=O)n(-c4ccc5c(c4)ncn5C)c12)C[C@@H](C)N(C(=O)c1ccc(Br)c(C(F)(F)F)c1)C3` (stereo in doubt) [Compound 86a, rac-(11R)-12-[4-bromo-3-(trifluoromethyl)benzoyl]-5-isobutyl-11-methyl-7-(1-methylbenzimidazol-5-yl)-2,3,7,12-tetrazatricyclo[7.4.0.0^2,6]trideca-1(9),3,5-trien-8-one] as the compound, how does the EC50 read?
Answer: Its EC50 is < 50 nM.

Question: How did the EC50 turn out when `C#CCc1cnn2c3c(c(=O)n(-c4ccc(C(=O)NC)cc4)c12)C[C@@H](C)N(C(=O)c1ccc(Br)c(C(F)(F)F)c1)C3` (stereo in doubt) [Compound 78a, N-methyl-4-[rac-(11R)-12-[4-bromo-3-(trifluoromethyl)benzoyl]-11-methyl-8-oxo-5-prop-2-ynyl-2,3,7,12-tetrazatricyclo[7.4.0.0^2,6]trideca-1 (9),3,5-trien-7-yl]benzamide] was run?
Answer: Its EC50 is < 50 nM.

Question: Which EC50 does the source give for `CC(C)Cc1cnn2c3c(c(=O)n(-c4ccc5c(c4)nnn5C)c12)C[C@@H](C)N(C(=O)c1ccc(Br)c(C(F)(F)F)c1)C3` (stereo in doubt) [Compound 95a, rac-(11R)-12-[4-bromo-3-(trifluoromethyl)benzoyl]-5-isobutyl-11-methyl-7-(1-methylbenzotriazol-5-yl)-2,3,7,12-tetrazatricyclo[7.4.0.0^2,6]trideca-1(9),3,5-trien-8-one] here?
Answer: The EC50 was < 50 nM.

Question: How did the EC50 turn out when `CC(C)[C@H](N)C(=O)OCN(C)C(=O)c1ccc(-n2c(=O)c3c(n4ncc(CC5CC5)c24)CN(C(=O)c2ccc(Br)c(C(F)(F)F)c2)[C@@H](C)C3)cc1` [Compound 90, [[4-[(11S)-12-[4-bromo-3-(trifluoromethyl)benzoyl]-5-(cyclopropylmethyl)-11-methyl-8-oxo-2,3,7,12-tetrazatricyclo[7.4.0.0^2,6]trideca-1(9),3,5-trien-7-yl]benzoyl]-methylamino]methyl (2S)-2-amino-3-methyl-butanoate] was run?
Answer: Its EC50 is > 5000 nM.

Question: `Cn1cnnc1-c1ccc(-n2c(=O)c3c(n4ncc(Cc5ccccc5)c24)CN(C(=O)c2ccc(Br)c(C(F)(F)F)c2)CC3)cc1` [Compound 25, 5-benzyl-12-[4-bromo-3-(trifluoromethyl)benzoyl]-7-[4-(4-methyl-1,2,4-triazol-3-yl)phenyl]-2,3,7,12-tetrazatricyclo[7.4.0.0^2,6]trideca-1(9),3,5-trien-8-one] was tested. Which EC50 did it give?
Answer: Its EC50 is < 50 nM.

Question: With `CC(C)Cc1cnn2c3c(c(=O)n(-c4ccc(-c5nncn5C)cc4)c12)C[C@H](C)N(C(=O)c1ccc(Cl)c(C(F)(F)F)c1)C3` (stereo in doubt) [Compound 67b, rac-(11S)-12-[4-chloro-3-(trifluoromethyl)benzoyl]-5-isobutyl-11-methyl-7-[4-(4-methyl-1,2,4-triazol-3-yl)phenyl]-2,3,7,12-tetrazatricyclo[7.4.0.0^2,6]trideca-1(9),3,5-trien-8-one] as the compound, how does the EC50 read?
Answer: The EC50 was 50 to 500 nM.

Question: `CNc1n[nH]c2cc(-n3c(=O)c4c(n5ncc(Cc6ccccc6)c35)CN(C(=O)c3ccc(Br)c(C(F)(F)F)c3)CC4)ccc12` [Compound 26, 5-benzyl-12-[4-bromo-3-(trifluoromethyl)benzoyl]-7-[3-(methylamino)-1H-indazol-6-yl]-2,3,7,12-tetrazatricyclo[7.4.0.0^2,6]trideca-1(9),3,5-trien-8-one] was tested. Which EC50 did it give?
Answer: The EC50 was < 50 nM.

Question: With `C[C@@H]1Cc2c(n3ncc(Cc4ccccc4)c3n(-c3ccc(-c4noc(=O)n4C)cc3)c2=O)CN1C(=O)c1ccc(Br)c(C(F)(F)F)c1` (stereo in doubt) [Compound 41a, 4-methyl-3-[4-[rac-(11R)-5-benzyl-12-[4-bromo-3-(trifluoromethyl)benzoyl]-11-methyl-8-oxo-2,3,7,12-tetrazatricyclo[7.4.0.0^2,6]trideca-1(9),3,5-trien-7-yl]phenyl]-1,2,4-oxadiazol-5-one] as the compound, how does the EC50 read?
Answer: The EC50 was < 50 nM.

Question: How did the EC50 turn out when `Cc1ccnn1-c1ccc(-n2c(=O)c3c(n4ncc(Cc5ccccc5)c24)CN(C(=O)c2ccc(Br)c(Cl)c2)CC3)cc1` [Compound 12, 5-benzyl-12-(4-bromo-3-chloro-benzoyl)-7-[4-(5-methylpyrazol-1-yl)phenyl]-2,3,7,12-tetrazatricyclo[7.4.0.0^2,6]trideca-1(9),3,5-trien-8-one] was run?
Answer: Its EC50 is < 50 nM.

Question: With `CNc1n[nH]c2cc(-n3c(=O)c4c(n5ncc(CC(C)C)c35)CN(C(=O)c3ccc(Cl)c(C(F)(F)F)c3)[C@H](C)C4)ccc12` (stereo in doubt) [Compound 56a, rac-(11R)-12-[4-chloro-3-(trifluoromethyl)benzoyl]-5-isobutyl-11-methyl-7-[3-(methylamino)-1H-indazol-6-yl]-2,3,7,12-tetrazatricyclo[7.4.0.0^2,6]trideca-1(9),3,5-trien-8-one] as the compound, how does the EC50 read?
Answer: The EC50 was < 50 nM.
